3 compounds from ChEMBL document CHEMBL2074272, “Proton-coupled oligopeptide transport by rat renal cortical brush border membrane vesicles: a functional analysis using ACE inhibitors to determine the isoform of the transporter” (Biochim Biophys Acta, 1998) can be followed below.

Assay [1] addresses T1, Solute carrier family 15 member 1 (Rattus norvegicus) (UniProt P51574).
T1 sequence (whole entry): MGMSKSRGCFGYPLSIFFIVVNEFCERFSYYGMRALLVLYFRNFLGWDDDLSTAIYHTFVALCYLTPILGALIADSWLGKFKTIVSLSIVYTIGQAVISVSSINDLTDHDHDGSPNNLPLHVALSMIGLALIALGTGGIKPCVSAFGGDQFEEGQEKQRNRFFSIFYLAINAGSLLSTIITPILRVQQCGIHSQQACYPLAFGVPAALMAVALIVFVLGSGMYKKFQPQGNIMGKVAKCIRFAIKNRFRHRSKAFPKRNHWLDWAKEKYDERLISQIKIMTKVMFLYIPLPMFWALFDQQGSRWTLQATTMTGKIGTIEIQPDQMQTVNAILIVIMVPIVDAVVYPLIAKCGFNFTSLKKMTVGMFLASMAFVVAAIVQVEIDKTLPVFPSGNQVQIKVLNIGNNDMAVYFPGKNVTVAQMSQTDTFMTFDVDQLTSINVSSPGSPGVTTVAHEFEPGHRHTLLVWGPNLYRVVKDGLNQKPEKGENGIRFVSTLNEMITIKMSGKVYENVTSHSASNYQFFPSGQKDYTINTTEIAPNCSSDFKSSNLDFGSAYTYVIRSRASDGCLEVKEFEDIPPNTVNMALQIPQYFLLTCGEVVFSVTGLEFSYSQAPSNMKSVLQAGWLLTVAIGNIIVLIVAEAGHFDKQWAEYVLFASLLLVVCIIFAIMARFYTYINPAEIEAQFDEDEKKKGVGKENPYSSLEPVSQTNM
Put plainly: TP_TRANSPORTER: uptake in Xenopus laevis oocytes. The following applies: Oocyte. The class given is functional, cell-based.

Assay [2] concerns the target T2, Solute carrier family 15 member 1 (Rattus norvegicus, UniProt P51574).
T2 sequence (P51574 whole entry): T1 sequence (whole entry)
Put plainly: TP_TRANSPORTER: inhibition of D-Phe-L-Gln uptake in Xenopus laevis oocytes. The assay is classed as functional, cell-based, Oocyte.

`NC(=O)CC[C@H](NC(=O)[C@H](N)Cc1ccccc1)C(=O)O`: in assay [1], the Activity entry was “substrate [+]”.
As to `C[C@H](CS)C(=O)N1CCC[C@H]1C(=O)O` [CAPTOPRIL], the affinity in assay [2], expressed as Ki, was 8.7 mM.
In assay [2], `CCOC(=O)[C@H](CCc1ccccc1)N[C@@H](C)C(=O)N1CCC[C@H]1C(=O)O` [ENALAPRIL] returned a Ki of 4.3 mM.
